ChEMBL document CHEMBL4622902, “Discovery of triazolo [1,5-a] pyridine derivatives as novel JAK1/2 inhibitors” (Bioorg Med Chem Lett, 2020)

How the values were obtained:
[1] = target: Tyrosine-protein kinase JAK2 (Homo sapiens, UniProt O60674); assay: Inhibition of JAK2 (unknown origin) in presence of ATP at Km concentration by caliper assay
[2] = target: Tyrosine-protein kinase JAK1 (Homo sapiens, UniProt P23458); assay: Inhibition of JAK1 (unknown origin) in presence of ATP at Km concentration by caliper assay
Tyrosine-protein kinase JAK1, sequence (P23458 whole entry): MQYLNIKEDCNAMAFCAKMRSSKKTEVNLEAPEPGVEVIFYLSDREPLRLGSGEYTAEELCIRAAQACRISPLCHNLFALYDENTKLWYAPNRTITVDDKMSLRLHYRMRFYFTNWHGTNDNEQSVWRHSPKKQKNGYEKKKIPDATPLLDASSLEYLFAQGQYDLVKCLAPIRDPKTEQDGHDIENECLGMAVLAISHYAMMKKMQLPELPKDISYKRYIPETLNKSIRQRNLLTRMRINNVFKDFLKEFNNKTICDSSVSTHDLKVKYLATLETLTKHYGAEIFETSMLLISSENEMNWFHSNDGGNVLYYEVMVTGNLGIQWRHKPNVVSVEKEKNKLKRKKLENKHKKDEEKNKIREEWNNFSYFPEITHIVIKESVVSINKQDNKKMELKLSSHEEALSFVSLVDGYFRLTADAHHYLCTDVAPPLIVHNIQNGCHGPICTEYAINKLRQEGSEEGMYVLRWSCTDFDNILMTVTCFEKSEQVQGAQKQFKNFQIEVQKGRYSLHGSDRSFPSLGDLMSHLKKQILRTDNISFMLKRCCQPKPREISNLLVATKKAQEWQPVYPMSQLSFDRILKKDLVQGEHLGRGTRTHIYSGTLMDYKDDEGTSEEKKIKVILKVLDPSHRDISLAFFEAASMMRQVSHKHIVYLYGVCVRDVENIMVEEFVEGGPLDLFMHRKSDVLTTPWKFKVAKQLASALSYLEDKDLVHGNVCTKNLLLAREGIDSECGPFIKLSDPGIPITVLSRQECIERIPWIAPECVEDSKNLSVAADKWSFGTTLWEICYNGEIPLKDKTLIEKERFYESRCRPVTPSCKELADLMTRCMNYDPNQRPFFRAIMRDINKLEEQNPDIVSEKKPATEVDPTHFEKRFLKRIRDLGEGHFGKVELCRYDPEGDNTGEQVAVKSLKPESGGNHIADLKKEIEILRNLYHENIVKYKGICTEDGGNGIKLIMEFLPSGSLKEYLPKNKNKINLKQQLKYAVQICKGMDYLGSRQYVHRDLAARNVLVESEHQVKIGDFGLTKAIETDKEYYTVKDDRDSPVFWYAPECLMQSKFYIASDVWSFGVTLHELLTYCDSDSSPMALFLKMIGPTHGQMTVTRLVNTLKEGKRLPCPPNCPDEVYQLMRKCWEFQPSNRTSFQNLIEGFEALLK

[3] = target: T1, Tyrosine-protein kinase JAK3 (Homo sapiens, UniProt P52333); assay: Inhibition of JAK3 (unknown origin) in presence of ATP at Km concentration by caliper assay
T1 sequence (P52333 whole entry): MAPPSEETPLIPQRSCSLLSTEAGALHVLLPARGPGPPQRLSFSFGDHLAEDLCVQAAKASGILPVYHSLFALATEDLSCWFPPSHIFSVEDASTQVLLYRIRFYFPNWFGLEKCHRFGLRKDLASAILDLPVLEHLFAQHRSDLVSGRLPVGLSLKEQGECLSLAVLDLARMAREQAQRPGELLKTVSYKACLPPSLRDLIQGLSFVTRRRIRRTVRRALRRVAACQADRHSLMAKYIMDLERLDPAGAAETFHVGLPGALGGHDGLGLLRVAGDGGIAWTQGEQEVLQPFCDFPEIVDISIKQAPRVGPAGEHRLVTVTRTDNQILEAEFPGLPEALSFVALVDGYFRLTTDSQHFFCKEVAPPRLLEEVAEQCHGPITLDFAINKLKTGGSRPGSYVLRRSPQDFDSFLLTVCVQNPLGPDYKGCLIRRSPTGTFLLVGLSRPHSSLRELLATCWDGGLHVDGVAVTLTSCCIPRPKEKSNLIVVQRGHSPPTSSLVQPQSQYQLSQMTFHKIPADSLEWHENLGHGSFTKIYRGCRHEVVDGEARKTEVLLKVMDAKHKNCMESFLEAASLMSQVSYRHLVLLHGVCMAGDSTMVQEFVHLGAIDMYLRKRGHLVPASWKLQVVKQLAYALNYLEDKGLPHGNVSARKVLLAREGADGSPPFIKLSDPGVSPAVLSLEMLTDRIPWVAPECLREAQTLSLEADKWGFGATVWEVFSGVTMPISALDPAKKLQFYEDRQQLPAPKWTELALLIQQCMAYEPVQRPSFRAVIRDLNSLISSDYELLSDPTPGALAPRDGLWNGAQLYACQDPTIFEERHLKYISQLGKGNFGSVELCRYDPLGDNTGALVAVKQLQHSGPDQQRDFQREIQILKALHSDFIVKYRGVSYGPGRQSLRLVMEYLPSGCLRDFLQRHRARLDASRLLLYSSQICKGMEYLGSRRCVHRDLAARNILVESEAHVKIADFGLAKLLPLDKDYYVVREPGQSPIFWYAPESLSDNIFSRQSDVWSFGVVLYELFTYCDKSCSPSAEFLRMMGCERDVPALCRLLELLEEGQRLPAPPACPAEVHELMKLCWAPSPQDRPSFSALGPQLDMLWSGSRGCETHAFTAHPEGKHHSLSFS

Tyrosine-protein kinase JAK2, sequence (O60674 whole entry): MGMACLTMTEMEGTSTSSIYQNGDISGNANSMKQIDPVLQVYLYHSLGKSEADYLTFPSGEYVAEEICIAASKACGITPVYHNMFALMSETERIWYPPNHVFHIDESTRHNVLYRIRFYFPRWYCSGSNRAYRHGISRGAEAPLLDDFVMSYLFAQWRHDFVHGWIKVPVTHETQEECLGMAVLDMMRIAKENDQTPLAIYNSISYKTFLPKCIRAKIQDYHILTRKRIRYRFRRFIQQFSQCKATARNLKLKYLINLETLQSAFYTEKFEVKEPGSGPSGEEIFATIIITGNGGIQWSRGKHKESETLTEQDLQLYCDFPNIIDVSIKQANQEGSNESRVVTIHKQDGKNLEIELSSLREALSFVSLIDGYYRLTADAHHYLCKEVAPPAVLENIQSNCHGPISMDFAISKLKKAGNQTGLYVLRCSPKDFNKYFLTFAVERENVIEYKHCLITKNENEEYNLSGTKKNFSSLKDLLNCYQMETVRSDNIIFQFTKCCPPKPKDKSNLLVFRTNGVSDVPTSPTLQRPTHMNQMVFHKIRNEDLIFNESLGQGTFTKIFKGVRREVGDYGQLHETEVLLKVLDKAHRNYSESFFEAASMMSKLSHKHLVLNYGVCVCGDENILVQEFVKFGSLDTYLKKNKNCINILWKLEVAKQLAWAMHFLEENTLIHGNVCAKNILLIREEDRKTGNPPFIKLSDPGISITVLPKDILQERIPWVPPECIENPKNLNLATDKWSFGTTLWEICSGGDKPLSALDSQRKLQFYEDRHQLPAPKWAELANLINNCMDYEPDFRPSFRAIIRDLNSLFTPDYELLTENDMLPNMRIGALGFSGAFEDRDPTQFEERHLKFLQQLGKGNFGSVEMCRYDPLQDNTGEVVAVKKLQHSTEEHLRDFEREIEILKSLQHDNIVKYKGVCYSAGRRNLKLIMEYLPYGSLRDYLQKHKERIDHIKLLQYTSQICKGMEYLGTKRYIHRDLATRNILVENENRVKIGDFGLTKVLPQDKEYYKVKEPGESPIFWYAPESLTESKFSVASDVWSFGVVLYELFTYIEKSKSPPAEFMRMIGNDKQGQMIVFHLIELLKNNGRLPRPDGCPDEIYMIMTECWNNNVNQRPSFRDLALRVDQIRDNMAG

Row | Structure (SMILES) | IC50 [1] [nM] | IC50 [2] [nM] | IC50 [3] [nM]
1 | O=C(Nc1nc2cccc(C3=CCN(C(=O)C4(C(F)(F)F)CC4)CC3)n2n1)C1CC1 | 317 |  | 
2 | C=CC(=O)N1CC=C(c2cccc3nc(NC(=O)C4CC4)nn23)CC1 | 424 |  | 
3 | O=C(Nc1nc2cccc(-c3ccc(C(=O)N4CC(F)(F)C4)cc3)n2n1)C1CC1 | 139 | 124 | 941
4 | N#CCNC(=O)N1CC=C(c2cccc3nc(NC(=O)C4CC4)nn23)CC1 | 175 |  | 
5 | O=C(Nc1nc2cccc(C3=CCN(C(=O)NCC(F)(F)F)CC3)n2n1)C1CC1 | 347 | 234 | 1740
6 | N#CC1(C(=O)N2CC=C(c3cccc4nc(NC(=O)C5CC5)nn34)CC2)CC1 | 441 |  | 
7 | O=C(Nc1nc2cccc(C3=CCN(C(=O)C4CC4(F)F)CC3)n2n1)C1CC1 (configuration not stated) | 192 |  | 
8 | N#CCNC(=O)c1ccc(-c2cccc3nc(NC(=O)C4CC4)nn23)cc1 | 299 |  | 
9 | N#CCC(=O)N1CC=C(c2cccc3nc(NC(=O)C4CC4)nn23)CC1 | 157 |  | 
10 | C=C(C#N)C(O)c1ccc(-c2cccc3nc(NC(=O)C4CC4)nn23)cc1 (configuration not stated) | 55 |  | 
11 | O=C(NCC(F)(F)F)c1ccc(-c2cccc3nc(NC(=O)C4CC4)nn23)cc1 | 214 | 230 | 1020
